Test results: patent US20230174584A1, “Antibiotic Compounds” (priority 2019, published 2023)
In brackets after ≈: the same amount, converted by molar mass. Like-named read-outs stand apart in the source and are kept apart here.

What was measured:
E. faecium E0072 = assay: MIC assay; type: cell-based, Enterococcus faecium
Procedure, shortened: (§1)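 MICs (μg/mL) were read after 24 h incubation at 37 °C and taken as the median of at least three replicates. Compounds were serially diluted twofold in TSB containing 0.002% polysorbate 80 and inoculated with an equal volume of bacteria at 10^6 CFU/mL.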

E. faecium E0333 = assay: MIC assay; type: cell-based, Enterococcus faecium
Procedure, shortened: as §1

E. faecium E1763 = assay: MIC assay; type: cell-based, Enterococcus faecium
Procedure, shortened: as §1

E. faecium E7319 = assay: MIC assay; type: cell-based, Enterococcus faecium
Procedure, shortened: as §1

E. faecium E8237 = assay: MIC assay; type: cell-based, Enterococcus faecium
Procedure, shortened: as §1

E. faecium E980 = assay: MIC assay; type: cell-based, Enterococcus faecium
Procedure, shortened: as §1

E. faecalis E7406 = assay: microbe, parasite or virus in culture; type: cell-based, Enterococcus faecalis
Protocol: (§2) The antibacterial activity of the compounds was tested against a panel of bacteria, including Gram-positive bacteria (S. aureus ATCC29213, S. aureus USA300, S. aureus LIM-2, NR-45881, S. aureus HIP13419, NR-46413, E. faecium E155, E. faecium E7314, E. faecium E980, E. faecalis E1246, E. faecalis E7406 and S. pneumonia 153). The antibacterial activity of the compounds was further tested against S. aureus NY-155, NR-46236, S. aureus HIP12864, NR-46074, S. aureus 880 (BR-VRSA), NR-49120, E. faecalis E1246, E. faecalis E7604, as well as some Gram-negative bacteria (Escherichia coli and Klebsiella pneumoniae). Minimum inhibitory concentrations (MICs) in μg/mL were performed according to the CLSI guidelines. From glycerol stocks, bacterial strains were cultured on blood agar plates and incubated at 37° C. for 18 h. A single colony was transferred to tryptic soy broth (TSB) with 0.002% polysorbate 80 (p80). For the Enterococcus, VISA and VRSA strains, the cultures were grown at 37° C. until the optical density of the suspension reached a level equivalent to the 0.5 McFarland standard. The bacterial suspensions were diluted in TSB with 0.002% p80 to reach a bacterial cell density of 10^6 CFU/mL. In case of the other (vancomycin-sensitive) S. aureus strains, the direct colony suspension method was used. For these strains, after transfer of the colonies to TSB with 0.002% p80, they were immediately diluted to 10^6 CFU/mL, instead of incubated prior to this dilution. In the case of S. pneumonia, direct colony suspension was used by immediately suspending multiple colonies from fresh blood agar plates in TSB+0.002% p80 to an OD600 of 0.5 and subsequent dilution to 10^6 CFU mL^−1 in TSB+0.002% p80+5% lysed horse blood. Antibiotic dilutions for this strains were also made in TSB+0.002% p80+5% lysed horse blood. Both agar and microplates containing S. pneumonia were incubated at 37° C. with 5% CO2 for 24 h with constant shaking (600 rpm). […] The cultures were grown to exponential phase (OD600=0.5) at 37° C. […] In polypropylene 96-well microtiter plates, test compounds were added in biological triplicates and serial diluted 2-fold by transfer and mixing from one well to the next to achieve a final volume of 50 μL per well. An equal volume of bacterial suspension (10^6 CFU mL^−1) was added to the wells. The plates were sealed with breathable membranes and incubated at 37° C. for 24 h with constant shaking (600 rpm). In polypropylene microtiter plates, 100 μL of the test compounds was added to the first row in biological triplicates, and 50 μL of media was added to the other wells. The compounds were subjected to serial dilution by transfer and mixing of 50 μL from one well to the next. Subsequently, 50 μL of bacterial suspension (10^6 CFU/mL) was added to the wells. The plates were sealed with breathable membranes and incubated at 37° C. for 24 h with constant shaking (600 rpm). Positive growth control consisted of wells with bacterial suspension and without antibiotic. Negative growth control consisted of solely media without bacterial suspension or antibiotic. The MICs were determined from the median of a minimum of triplicates.

E. faecalis E7604 = assay: microbe, parasite or virus in culture; type: cell-based, Enterococcus faecalis
Protocol: as §2

[1] = tested on: Escherichia coli ATCC 25922; assay: MIC assay; type: cell-based
Protocol: as §2

Escherichia coli W3110 = assay: MIC assay; type: cell-based
Protocol: as §2

[2] = tested on: Klebsiella pneumoniae ATCC 13883; assay: MIC assay; type: cell-based
Protocol: as §2

[3] = tested on: Klebsiella pneumoniae JS265; assay: MIC assay; type: cell-based
Protocol: as §2

S. pneumoniae 153 = assay: MIC assay; type: cell-based
Protocol: as §2

E. faecium E0341 = assay: MIC assay; type: cell-based, Enterococcus faecium
S. aureus ATCC29123 = assay: Lipid II antagonization assay; type: cell-based, Staphylococcus aureus; settings: for visible bacterial growth with lipid II / visible bacterial growth without lipid II: 8×MIC of test compound, 24 h; for visible bacterial growth with lipid II: 5-fold molar excess of lipid II; on visible bacterial growth with lipid II: key: − means no visible growth; + means visible growth; on visible bacterial growth without lipid II: key: − means no visible growth; + means visible growth
Protocol: Lipid II in chloroform was added in the appropriate amount (5-fold molar excess compared to test antibiotics) to a 96-well plate and the chloroform was allowed to evaporate. […] Of these dilutions, 50 μL was mixed with the 5-fold molar excess of pure lipid II in triplicates in the plate as well as added to the plate in triplicates without lipid II present. S. aureus ATCC29123 colonies were suspended in TSB with 0.002% p80 by direct colony suspension to an optical density that reached a level equivalent to the 0.5 McFarlan standard. […] The samples were incubated at 37° C. for 24 h with constant shaking (600 rpm) and inspected for visible bacterial growth. Positive growth control consisted of wells with bacterial suspension and without antibiotic or lipid II. Negative growth control consisted of solely media without bacterial suspension, antibiotic or lipid II.
In the antagonization assay, lipid II is co-incubated with the test antibiotics in the presence of bacterial culture. When lipid II binds the glycopeptides, the binding of these antibiotics to their target in the growing bacterial culture is antagonized. This ultimately results in diminished activity of the antibiotics and bacterial growth which normally would not be visible (at 8×MIC) becomes visible. Therefore, this assay could be used to determine if part of the mechanism of action of our compounds involves binding to lipid II.

[4] = S. pneumoniae 153, TSB+0.002% p80+5% lysed horse blood

Structure (SMILES) | MIC (E. faecium E0072; Enterococcus faecium, E0072) | MIC (E. faecium E0333; Enterococcus faecium, E0333) | MIC (E. faecium E1763; Enterococcus faecium, E1763) | MIC (E. faecium E7319; Enterococcus faecium, E7319) | MIC (E. faecium E8237; Enterococcus faecium, E8237) | MIC (E. faecium E980; Enterococcus faecium, E980) | MIC (E. faecalis E7406; Enterococcus faecalis, VRE) | MIC (E. faecalis E7604; Enterococcus faecalis, VRE) | MIC ([1]; ATCC25922, read-out: MIC) | MIC (Escherichia coli W3110; read-out: MIC) | MIC ([2]; ATCC13883, read-out: MIC) | MIC ([3]; read-out: MIC) | MIC (S. pneumoniae 153; Streptococcus pneumoniae, 153) | MIC (E. faecium E0341; Enterococcus faecium, E0341) | visible bacterial growth with lipid II (S. aureus ATCC29123) | visible bacterial growth without lipid II (S. aureus ATCC29123) | MIC (E. faecium E0072; E. faecium E0072, VanA) | MIC (E. faecium E0333; E. faecium E0333, VanA) | MIC (E. faecium E1763; E. faecium E1763, VanA) | MIC (E. faecium E7319; E. faecium E7319, VanA) | other results
CCCCCCCCCCNCCN[C@@]1(C)C[C@H](O[C@H]2[C@H](Oc3c4cc5cc3Oc3ccc(cc3Cl)[C@@H](O)[C@@H](NC(=O)[C@@H](CC(C)C)NC)C(=O)N[C@@H](CC(N)=O)C(=O)N[C@H]5C(=O)N[C@H]3C(=O)N[C@H](C(=O)N[C@H](C(=O)O)c5cc(O)c(CNCP(=O)(O)O)c(O)c5-c5cc3ccc5O)[C@H](O)c3ccc(c(Cl)c3)O4)O[C@H](CO)[C@@H](O)[C@@H]2O)O[C@@H](C)[C@H]1O [Telavancin, reference compound] | 2 µg/mL (≈ 1.14 µM) | 8 µg/mL (≈ 4.56 µM) | 1 µg/mL (≈ 0.57 µM) | 8 µg/mL (≈ 4.56 µM) | 16 µg/mL (≈ 9.11 µM) | 0.0156 µg/mL (≈ 0.0089 µM) | 0.0625 µg/mL (≈ 0.0356 µM) | 0.063 µg/mL (≈ 0.0359 µM) | > 128 µg/mL | > 128 µg/mL | > 128 µg/mL | > 128 µg/mL | ≤ 0.008 µg/mL | 8 µg/mL (≈ 4.56 µM) | + | − |  |  |  |  | 
CN[C@H](CC(C)C)C(=O)N[C@H]1C(=O)N[C@@H](CC(N)=O)C(=O)N[C@H]2C(=O)N[C@H]3C(=O)N[C@H](C(=O)N[C@H](C(=O)O)c4cc(O)cc(O)c4-c4cc3ccc4O)[C@H](O[C@H]3C[C@](C)(N)[C@@H](O)[C@H](C)O3)c3ccc(c(Cl)c3)Oc3cc2cc(c3O[C@@H]2O[C@H](CO)[C@@H](O)[C@H](O)[C@H]2O[C@H]2C[C@](C)(NCc3ccc(-c4ccc(Cl)cc4)cc3)[C@@H](O)[C@H](C)O2)Oc2ccc(cc2Cl)[C@H]1O [Oritavancin] |  |  |  |  |  | 0.0625 µg/mL (≈ 0.0349 µM) | 0.0625 µg/mL (≈ 0.0349 µM) | 0.063 µg/mL (≈ 0.0351 µM) |  |  |  |  | ≤ 0.008 µg/mL |  |  |  |  |  |  |  | 
CCCCCCN(CCCCCC)C(N)=Nc1ccc(CN[C@@]2(C)C[C@H](O[C@H]3[C@H](Oc4c5cc6cc4Oc4ccc(cc4Cl)[C@@H](O)[C@@H](NC(=O)[C@@H](CC(C)C)NC)C(=O)N[C@@H](CC(N)=O)C(=O)N[C@H]6C(=O)N[C@H]4C(=O)N[C@H](C(=O)N[C@H](C(=O)O)c6cc(O)cc(O)c6-c6cc4ccc6O)[C@H](O)c4ccc(c(Cl)c4)O5)O[C@H](CO)[C@@H](O)[C@@H]3O)O[C@@H](C)[C@H]2O)cc1 [Compound 12] |  |  |  |  |  |  |  |  |  |  |  |  |  |  |  |  | 0.25 µg/mL (≈ 0.142 µM) | 2 µg/mL (≈ 1.13 µM) | 0.031 µg/mL (≈ 0.0176 µM) | 0.25 µg/mL (≈ 0.142 µM) | MIC (E. faecium E8237; E. faecium E8237, VanA): 2 µg/mL (≈ 1.13 µM); MIC (E. faecium E980; E. faecium E980 VSE): ≤0.007812 µg/mL; MIC (E. faecalis E7406; E. faecalis E7406 VRE (VanB)): ≤0.007812 µg/mL; MIC (E. faecalis E7604; E. faecalis E7604 VRE (vanB)): ≤0.008 µg/mL; MIC [1]: >128 µg/mL; MIC (Escherichia coli W3110): >128 µg/mL; MIC [2]: >128 µg/mL; MIC [3]: >128 µg/mL; MIC (S. pneumoniae 153; [4]): ≤0.008 µg/mL; MIC (E. faecium E0341; E. faecium E0341, VanA): 2 µg/mL (≈ 1.13 µM)
CN[C@H](CC(C)C)C(=O)N[C@H]1C(=O)N[C@@H](CC(N)=O)C(=O)N[C@H]2C(=O)N[C@H]3C(=O)N[C@H](C(=O)N[C@H](C(=O)O)c4cc(O)cc(O)c4-c4cc3ccc4O)[C@H](O)c3ccc(c(Cl)c3)Oc3cc2cc(c3O[C@@H]2O[C@H](CO)[C@@H](O)[C@H](O)[C@H]2O[C@H]2C[C@](C)(N)[C@H](O)[C@H](C)O2)Oc2ccc(cc2Cl)[C@H]1O [Vancomycin, reference compound] | > 128 µg/mL | > 128 µg/mL | 128 µg/mL (≈ 88.3 µM) | > 128 µg/mL | > 128 µg/mL | 0.5 µg/mL (≈ 0.345 µM) | 16 µg/mL (≈ 11 µM) | 16 µg/mL (≈ 11 µM) | > 128 µg/mL | > 128 µg/mL | > 128 µg/mL | > 128 µg/mL | 0.5 µg/mL (≈ 0.345 µM) | > 128 µg/mL | + | − |  |  |  |  | 
CCCCCCCCNC(N)=Nc1ccc(CN[C@@]2(C)C[C@H](O[C@H]3[C@H](Oc4c5cc6cc4Oc4ccc(cc4Cl)[C@@H](O)[C@@H](NC(=O)[C@@H](CC(C)C)NC)C(=O)N[C@@H](CC(N)=O)C(=O)N[C@H]6C(=O)N[C@H]4C(=O)N[C@H](C(=O)N[C@H](C(=O)O)c6cc(O)cc(O)c6-c6cc4ccc6O)[C@H](O)c4ccc(c(Cl)c4)O5)O[C@H](CO)[C@@H](O)[C@@H]3O)O[C@@H](C)[C@H]2O)cc1 [Compound 6] |  |  |  |  |  |  |  |  |  |  |  |  |  |  | + | − | 0.5 µg/mL (≈ 0.293 µM) | 4 µg/mL (≈ 2.34 µM) | 0.031 µg/mL (≈ 0.0181 µM) | 0.125 µg/mL (≈ 0.0732 µM) | MIC (E. faecium E8237; E. faecium E8237, VanA): 2 µg/mL (≈ 1.17 µM); MIC (E. faecium E980; E. faecium E980 VSE): 0.01562 µg/mL (≈ 0.00914 µM); MIC (E. faecalis E7406; E. faecalis E7406 VRE (VanB)): ≤0.007812 µg/mL; MIC (E. faecalis E7604; E. faecalis E7604 VRE (vanB)): ≤0.008 µg/mL; MIC [1]: >128 µg/mL; MIC (Escherichia coli W3110): >128 µg/mL; MIC [2]: >128 µg/mL; MIC [3]: >128 µg/mL; MIC (S. pneumoniae 153; [4]): ≤0.008 µg/mL; MIC (E. faecium E0341; E. faecium E0341, VanA): 4 µg/mL (≈ 2.34 µM); bacterial growth after co-incubation with lipid II (S. aureus ATCC29123; 8×MIC, co-incubation with lipid II): Bacterial growth was visible
